Where two headings read alike, the source gives them in different places.

The nature of data set [1]: Diafiltration study of kinetically and thermodynamically bound drug. The data set is classed as physicochemical. The protocol:
Diafiltration studies were carried out to determine the fraction of amitriptyline (AMT) that was kinetically or thermodynamically bound to poly(sodium 4-styrenesulfonate (PSS) as the nanoparticle. For this study, diafiltration was been modeled as a two-compartment system, where a continuous liquid supply from the donor chamber (reservoir) is kept, maintaining a constant volume in the diafiltration cell. The unit used for diafiltration analyses consisted of a diafiltration cell, a regenerated cellulose membrane, a reservoir, a […], and a pressure source. […] The volume in the filtration cell was kept constant during the experiment, by creating a continuous flux of liquid through the diafiltration cell, from the reservoir to the collector tube. […] A total of 8 samples (approx. 5 mL) were collected and AMT concentration in each sample was determined by spectrophotometry. Subsequently, the thermodynamically bound (TB) and kinetically bound (KB) fractions were determined as follows: TB=v(km-j)/km KB=u-um The parameters v and u represent the initial fraction of AMT thermodynamically bound to the particles, thus in equilibrium, and the fraction bound to the nanocarriers whose release is kinetically controlled, respectively. […] A total of 8 samples (approx. 5 mL) were collected and the concentration of the interest species in each sample was determined by spectrophotometry. […]

Data set [2] can be described thus: In vitro drug release by dialysis. Type of data set: physicochemical. The conditions noted are these: AMT/PSS n+/n−=0.60, dialysis, pH=7 and 37° C., 20 days. The protocol:
The in vitro drug release of amitriptyline (AMT) from poly (sodium 4-styrenesulfonate (PSS) was evaluated using a dialysis method. Briefly, 5 mL of AMT/PSS (n+/n−=0.60) was transferred to a dialysis membrane. The membrane was immersed in 95 mL of Milli-Q water at pH 7 and kept at 37° C. and 100 rpm in an orbital shaker. The experiment was carried out for 20 days. Aliquots (500 μL) of the solution were withdrawn at certain time intervals and replaced with an equal volume of fresh Milli-Q water. The amount of released AMT was determined by measuring the absorbance of each aliquot at 239 nm. The standard curve of AMT in water was linear (R2>0.997) in the range of concentrations between 7×10^−5 M and 7×10^−7 M (molar extinction coefficient was 12712 M^−1 cm^−1). Blank experiments dialyzing free AMT were carried out at the same conditions.
i) Dialysis: 5 mL of HALMD/PSS formulations were added in a dialysis bag (MWCO 10 kDa, ThermoScientific, USA). The dialysis system was immersed in 95 mL of Milli-Q water at pH 7 and kept at 37° C., and 100 rpm in an orbital shaker (LSI-3016R, LabTech, Daihan LabTech, Kyonggi-Do, Korea). […] The amount of released HALMD (CQ, PMZ and CPM) was determined by measuring the absorbance of each aliquot by spectrophotometry (Agilent 8453 spectrophotometer, USA).

The conditions of data set [3]: cited from earlier work.
For data set [4] the following is noted: cited from earlier work. This is another data set of the same source.

Consider `CN(C)CCC=C1c2ccccc2CCc2ccccc21` [AMT, amitriptyline], for which, in data set [1] (AMT/PSS formulations), the “drug molecules not subjected to equilibrium with the bulk (release kinetically controlled)” value is recorded as “more than 80%”. Also, in data set [2], the “release of AMT” value is no more than 16.5%. For the same molecule, the release in data set [3] (from polyvinyl alcohol-based beads, first stage of the experiment (Ahnfelt et al)) was greater than 80%.

As a reminder, the pKa is the pH at which an ionisable group is half protonated. Take `CN(C)CCC(c1ccc(Cl)cc1)c1ccccn1` (centres unmarked) [Chlorpheniramine]: the “drug association attributed to kinetic binding” value in data set [1] (HALMD/PSS NPs) is reported as “≈ 50%”. Besides, the pKa in data set [4] is 4.0; in data set [4] (second value), 9.4.

Regarding `COc1cccc2c1C(=O)c1c(O)c3c(c(O)c1C2=O)C[C@@](O)(C(=O)CO)C[C@@H]3O[C@H]1C[C@H](N)[C@H](O)[C@H](C)O1` [doxorubicin], the initial drug release in data set [3] (poly(N-isopropylacrylamide)-based thermosensitive hydrogel (Chen et al)) was 40%.

On to `CN(C)CCCN1c2ccccc2CCc2ccccc21` [imipramine], for which the burst release result in data set [3] (from calcium-alginate gel beads, 1-2 h (Tomida et al)) was “≈ 80%”.

The record behind these values is patent publication US11413349B2, “Green methodology to create polymeric nanocarriers containing hydrophilic low molecular-weight drugs and providing a very high drug loading and a very high prolonged release” (UNIVERSIDAD DE CHILE, priority 2019, dated 2022).
